What was measured:
γ-secretase [1] = molecular target: T1, γ-secretase (Homo sapiens, UniProt P49768); assay: In vitro γ-secretase activity assay, Aβ40 production (ECL); format: biochemical; conditions: for IC50: in vitro inhibition of γ-secretase activity that generates Aβ40, 2.5 hr at 37° C., ECL detection; for Aβ40/Aβ42 ratio: ratio of IC50 for Aβ40 to IC50 for Aβ42
T1 construct: endogenous in cells
Protocol: (§1) FIG. 2. In vitro characterization of coumarin-dimer allosteric GSIs against various γ-secretase cleavage products. The potency of 7 unique coumarin-based γ-secretase inhibitors were evaluated for efficacy against γ-secretase-mediated production of Aβ40, Aβ42, Aβ38, and Notch. Additionally, the pan-GSI Compound E was also examined in these assays. The IC50 values were calculated from the dose response curves using a non-linear regression analysis in Prism software. IC50 values are presented with standard deviation (n=3 for each data point). The three β-amyloid-detection in vitro assays were modified from our previously reported assay (21) using a biotinylated substrate that eliminated the requirement of anti-β-amyloid biotinylated antibody. Ruthenylated antibodies that detected the -40, -42, or -38 cleavage site were incorporated to detect proteolysis indicative of γ-secretase activity. In vitro Notch assay utilized a recombinant transmembrane portion of the Notch peptide and anti-Notch1 SM320 antibody in conjunction with ruthenylated anti-rabbit secondary antibodies. Electrochemiluminescence was quantified on an Analyzer (BioVeris). The selectivity ratio for Aβ42 inhibition over Aβ40 and Notch are indicated in the two far right columns.
The assay protocol employed was a modified version of that described in Li et al., 2000, Proc. Nat'l Acad. Sci. USA 97:6183-643, incorporated herein by reference. Briefly, recombinant peptide substrate was incubated with γ-secretase (40 μg/ml) in the presence or absence of test compound. The reaction mixture contained 0.25% CHAPSO, 0.1 μg/μl BSA, protease inhibitor, 50 mM PIPES, pH 7.0, 5 mM MgCl2, 5 mM CaCl2 and 150 mM KCl. The reaction was incubated for 2.5 hr at 37° C. and stopped by adding RIPA buffer (150 mM NaCl, 1.0% NP-40, 0.5% sodium deoxycholate, 0.1% SDS, 50 mM Tris HCl, pH 8.0). The products were detected with various antibody combinations using electrochemiluminescence (ECL) technology as previously described in Li et al., 2000, Proc. Nat'l Acad. Sci. USA 97:6183-643; Lai et al., 2003, J. Biol. Chem. 278: 22475-22481; and Yin et al., 2007, J. Biol. Chem. 282:23639-23644. The amount of product was determined using synthetic peptide or recombinant standards.
(§2) Cell membranes and solubilized γ-secretase were prepared as described previously (36). The in vitro and cell γ-secretase assays detecting either Aβ38, Aβ40, or Aβ42 cleavage were performed similar as previously described (21, 36). Cleaved product was detected using ruthenylated antibodies that recognize specific APP cleavage sites (Aβ31-38*, G2-10*, or G2-11* antibody for Aβ38, Aβ40, or Aβ42 respectively). The Km and Vmax in the presence and absence of γ-secretase inhibitors were analyzed by non-linear curve fit using the software SigmaPlot 8.0 with the Michaelis-Menten equation (v=Vm [S]/(Km+[S]; v: initial rate; Vm: maximum velocity; Km: the Michaelis-Menten constant, S: substrate).

γ-secretase [2] = molecular target: T1, γ-secretase; assay: In vitro γ-secretase activity assay, Aβ42 production (ECL); format: biochemical; conditions: in vitro inhibition of γ-secretase activity that generates Aβ42; 2.5 hr at 37° C., ECL detection
Protocol: as §1, with “The potency of 7 unique coumarin-based γ-secretase inhibitors were evaluated for efficacy against γ-secretase-mediated production of Aβ40, Aβ42, Aβ38, and Notch. Additionally, the pan-GSI Compound E was also examined in these assays.” left out, “IC50 values are presented with standard deviation (n=3 for each data point).” left out, “(BioVeris).” for “(BioVeris). The selectivity ratio for Aβ42 inhibition over Aβ40 and Notch are indicated in the two far right columns.”
Briefly, recombinant peptide substrate was incubated with γ-secretase (40 μg/ml) in the presence or absence of test compound. […] The reaction was incubated for 2.5 hr at 37° C. and stopped by adding RIPA buffer (150 mM NaCl, 1.0% NP-40, 0.5% sodium deoxycholate, 0.1% SDS, 50 mM Tris HCl, pH 8.0). […] The amount of product was determined using synthetic peptide or recombinant standards.
as §2

| Structure (SMILES) | IC50 (γ-secretase [1]) [µM] | Aβ40/Aβ42 ratio (γ-secretase [1]) | IC50 (γ-secretase [2]) [µM] |
| --- | --- | --- | --- |
| O=c1oc2ccccc2c(O)c1C(/C=C/c1cc(F)c(F)c(F)c1)c1c(O)c2ccccc2oc1=O [(trans)-1] | 3.7 | 1.3 | 2.9 |
| COc1ccc(/C=C/C(c2c(O)c3ccccc3oc2=O)c2c(O)c3ccccc3oc2=O)cc1 [(trans)-258] | 21.5 | 3.8 | 5.6 |
| O=c1[nH]c2ccccc2c(O)c1C(c1cc(F)c(F)c(F)c1)c1c(O)c2ccccc2[nH]c1=O [Compound 45] | 8 | 2.4 | 3.4 |
| O=c1sc2ccccc2c(O)c1C(c1cc(F)c(F)c(F)c1)c1c(O)c2ccccc2sc1=O [Compound 53] | 1.3 | 2.6 | 0.5 |
| O=c1oc2ccccc2c(O)c1C(c1cc(F)cc(F)c1)c1c(O)c2ccccc2oc1=O [Compound 61] | 0.34 | 2.0 | 0.17 |
| COc1ccc(C(c2c(O)c3ccccc3oc2=O)c2c(O)c3ccccc3oc2=O)cc1F [Compound 77] | 6.2 | 2.2 | 2.8 |
| Cc1ccc2oc(=O)c(C(c3cc(F)c(F)c(F)c3)c3c(O)c4cc(C)ccc4oc3=O)c(O)c2c1 [Compound 197] | 3.26 | 2.1 | 1.59 |
| O=c1oc2ccccc2c(O)c1C(Cc1ccc(F)cc1)c1c(O)c2ccccc2oc1=O [Compound 199] | 4 | 4.4 | 0.9 |
| O=c1oc2ccc(F)cc2c(O)c1C(c1cc(F)c(F)c(F)c1)c1c(O)c2cc(F)ccc2oc1=O [Compound 203] | 2.6 | 2.9 | 0.9 |
| O=c1oc2ccccc2c(O)c1C(c1cccc(C(F)(F)F)c1)c1c(O)c2ccccc2oc1=O [Compound 209] | 2 | 2.5 | 0.8 |
| CCc1ccc(C(c2c(O)c3ccccc3oc2=O)c2c(O)c3ccccc3oc2=O)cc1 [Compound 210] | 4.6 | 2.4 | 1.9 |
| C/C=C/C=C/C(c1c(O)c2ccccc2oc1=O)c1c(O)c2ccccc2oc1=O [Compound 257] | 9.9 | 1.4 | 7.3 |
| O=c1oc2ccccc2c(O)c1C1c2cc(F)c(F)cc2Oc2c1c(=O)oc1ccccc21 (stereo not shown) [Compound 369] | 2.6 | 2.9 | 0.9 |
| Nc1ccc2c(c1)Oc1c(c(=O)oc3ccccc13)C2c1c(O)c2ccccc2oc1=O (stereo not shown) [Compound 372] | 19.4 | 2.0 | 9.9 |
| O=c1oc2ccccc2c(O)c1C1c2c(F)c(F)c(F)c(F)c2Oc2c1c(=O)oc1ccccc21 (stereo not shown) [Compound 423] | 3.4 | 2.6 | 1.3 |
| O=C(Cc1cc(F)cc(F)c1)c1c(O)c2ccccc2oc1=O [Compound 560] | 89.9 | 3.3 | 26.9 |
| O=c1oc2ccccc2c(O)c1C(c1ccc(C(F)(F)F)cc1)c1c(O)c2ccccc2oc1=O [Compound 728] | 7 | 4.4 | 1.6 |
| CC(=O)Nc1ccc(C(c2c(O)c3ccccc3oc2=O)c2c(O)c3ccccc3oc2=O)cc1 [Compound 732] | 63.9 | 4.0 | 15.9 |
| O=c1oc2ccccc2c(O)c1C(c1c(O)c2ccccc2oc1=O)C1CCCCC1 [Compound 733] | 4.2 | 3.5 | 1.2 |
| O=c1oc2ccccc2c(O)c1C(c1ccccc1F)c1c(O)c2ccccc2oc1=O [Compound 734] | 1.95 | 0.3 | 7.2 |
| Oc1ccnc(O)c1C(c1cc(F)c(F)c(F)c1)c1c(O)ccnc1O [Compound 738] | > 100 |  | > 100 |
| O=c1oc2ccccc2c(O)c1Cc1cc(F)c(F)c(F)c1 [compound 476] | > 100 |  | > 100 |

Reference: patent publication US20150133493A1, “COUMARIN-BASED COMPOUNDS FOR THE TREATMENT OF ALZHEIMER'S DISEASE AND CANCER” (Sloan-Kettering Institute for Cancer Research, priority 2008, published 2015)
